Data on one compound can be found in US20250177425A1, “SAIKOSAPONIN C AS COMPOSITION FOR TREATING OR PREVENTING AGE-RELATED VASCULAR DISEASES INCLUDING ARTERIOSCLEROSIS” (AGINGTARGET, INC., priority 2022, published 2025).

One experiment deals with Sirt1 in HUVEC. As to the kind of experiment: Sirt1 activity assay kit and Western blotting (expression, phosphorylation). In kind it is cell-based, human. Conditions: 5 μM and 20 μM pretreatment 2 hours, 33 mM high glucose 36 hours, dose-dependent. How it is done: (§1) Similar to Experimental Example 1, a high-fat diet evaluation system at the cellular level was established.
(§2) Specifically, two types of vascular endothelial cells, namely, HUVEC and HPAEC cells, were pretreated with Saikosaponin C at concentrations of 5 μM and 20 μM for 2 hours, and then treated with high glucose at a concentration of 33 mM for 36 hours. Then, Sirt1 activity, protein expression and phosphorylation levels were analyzed.
(§3) Sirt1 activity was measured using the Sirt1 Activity Assay Kit (FIG. 7A and FIG. 7B), and Sirt1 protein expression and phosphorylation (Ser27, Ser47) were measured through Western blotting (FIG. 7C and FIG. 7D).

The next experiment deals with Sirt1 in HPAEC. Described as above. The conditions noted are these: 5 μM and 20 μM pretreatment 2 hours, 33 mM high glucose 36 hours, dose-dependent. Format: cell-based, human. How it is done:
as §1, §2, §3

Experiment [1] relates to p21, p27, and p16 in HUVEC. As to the kind of experiment: Western blotting of G1 phase growth arrest-inducing proteins. In kind it is cell-based, human. Conditions: 5 μM and 20 μM pretreatment 2 hours, 33 mM high glucose 36 hours, dose-dependent. How it is done:
as §1
(§4) Specifically, two types of vascular endothelial cells, namely, HUVEC and HPAEC cells, were pretreated with Saikosaponin C at concentrations of 5 μM and 20 μM for 2 hours, then treated with high glucose (33 mM) for 48 hours, and then immobilized with cold 70% ethanol. The DNA of the immobilized vascular endothelial cells was stained with PI (propidium iodide, 50 μg/ml) solution and the cell cycle was analyzed using a flow cytometer. In addition, the expression of cell cycle regulatory proteins such as p21, p27, and p16 was analyzed after treatment with high glucose (33 mM) for 36 hours.
(§5) Since cellular senescence is closely related to the arrest in the G1 phase of the cell cycle, the cell cycle was evaluated using flow cytometry (FIG. 4A and FIG. 4B). In addition, the expression of p21, p27, and p16 proteins, which are G1 phase growth arrest-inducing proteins, was measured through Western blotting (FIG. 4C, FIG. 4D).

Experiment [2] concerns p21, p27, and p16 in HPAEC. The experiment is described as above. Conditions: 5 μM and 20 μM pretreatment 2 hours, 33 mM high glucose 36 hours, dose-dependent. Format: cell-based, human. The protocol: as §1, §4, §5
Experiment [3] concerns eNOS / nitric oxide in HPAEC. As to the kind of experiment: NOS-NO signaling: nitric oxide level, eNOS activity, expression, phosphorylation. In kind it is cell-based, human. The conditions noted are these: 5 μM and 20 μM pretreatment 2 hours, 33 mM high glucose 36 hours, dose-dependent. The protocol:
as §1
(§6) Specifically, two types of vascular endothelial cells, namely, HUVEC and HPAEC cells, were pretreated with Saikosaponin C at concentrations of 5 μM and 20 μM for 2 hours, and then treated with high glucose at a concentration of 33 mM for 36 hours. Then, the nitric oxide (NO) concentration, endothelial nitric oxide synthase (eNOS) activity, protein expression, and phosphorylation level were analyzed.
(§7) Nitric oxide production was measured using a Nitric Oxide Assay Kit (FIG. 6A and FIG. 6B). Specifically, nitrate (NO3^−) and nitrite (NO2^−) levels were measured using nitrate reductase and Griess reagent. Nitric oxide synthase activity was measured using a NOS Activity Assay Kit (FIG. 6C and FIG. 6D) and the expression and phosphorylation (Ser114) of NOS were measured by Western blotting (FIG. 6E and FIG. 6F).

For experiment [4], the system named is eNOS / nitric oxide in HUVEC. Described as above. Format: cell-based, human. The conditions noted are these: 5 μM and 20 μM pretreatment 2 hours, 33 mM high glucose 36 hours, dose-dependent. The protocol:
as §1, §6, §7

The subject of the next experiment is AoSMC. As to the kind of experiment: Wound healing and transwell migration assay, PDGF-BB-induced. Format: cell-based, human. The conditions noted are these: 5 μM and 20 μM pretreatment 2 hours, PDGF-BB 20 ng/ml 24 hours. How it is done: (§8) Specifically, two types of vascular smooth muscle cells, namely, AoSMC (human aortic smooth muscle cells) and CASMC (human coronary artery smooth muscle cells), were pretreated with Saikosaponin C at concentrations of 5 μM and 20 μM for 2 hours, and then treated with PDGF-BB (20 ng/ml), a platelet-derived growth factor (PDGF), for 24 hours. Then, the proliferation and migration of vascular smooth muscle cells were observed. A wound healing assay was performed to observe the proliferation and migration of vascular smooth muscle cells, and a transwell migration assay was performed to observe the migration ability of vascular smooth muscle cells.
(§9) FIGS. 10A and 10B show the results of evaluating the proliferation and migration of vascular smooth muscle cells (AoSMC, CASMC) through a scratch wound healing assay. FIGS. 10C and 10D show the results of analyzing the cell migration ability of the same cells using a Transwell migration chamber with a pore size of 8.0 μm.

Another experiment concerns CASMC. The description is as above. In kind it is cell-based, human. The conditions noted are these: 5 μM and 20 μM pretreatment 2 hours, PDGF-BB 20 ng/ml 24 hours. The protocol:
as §8, §9

In the next experiment the target is NLRP3 inflammasome (Homo sapiens, UniProt Q96P20). Kind of experiment: NLRP3 inflammasome activity: IL-1β secretion (Solid Phase Sandwich ELISA). The conditions noted are these: PMA-differentiated THP-1 macrophages; 20 μM pretreatment 2 hours, MSU 200 μg/ml 6 hours.
Chain of NLRP3 inflammasome (Q96P20 whole entry): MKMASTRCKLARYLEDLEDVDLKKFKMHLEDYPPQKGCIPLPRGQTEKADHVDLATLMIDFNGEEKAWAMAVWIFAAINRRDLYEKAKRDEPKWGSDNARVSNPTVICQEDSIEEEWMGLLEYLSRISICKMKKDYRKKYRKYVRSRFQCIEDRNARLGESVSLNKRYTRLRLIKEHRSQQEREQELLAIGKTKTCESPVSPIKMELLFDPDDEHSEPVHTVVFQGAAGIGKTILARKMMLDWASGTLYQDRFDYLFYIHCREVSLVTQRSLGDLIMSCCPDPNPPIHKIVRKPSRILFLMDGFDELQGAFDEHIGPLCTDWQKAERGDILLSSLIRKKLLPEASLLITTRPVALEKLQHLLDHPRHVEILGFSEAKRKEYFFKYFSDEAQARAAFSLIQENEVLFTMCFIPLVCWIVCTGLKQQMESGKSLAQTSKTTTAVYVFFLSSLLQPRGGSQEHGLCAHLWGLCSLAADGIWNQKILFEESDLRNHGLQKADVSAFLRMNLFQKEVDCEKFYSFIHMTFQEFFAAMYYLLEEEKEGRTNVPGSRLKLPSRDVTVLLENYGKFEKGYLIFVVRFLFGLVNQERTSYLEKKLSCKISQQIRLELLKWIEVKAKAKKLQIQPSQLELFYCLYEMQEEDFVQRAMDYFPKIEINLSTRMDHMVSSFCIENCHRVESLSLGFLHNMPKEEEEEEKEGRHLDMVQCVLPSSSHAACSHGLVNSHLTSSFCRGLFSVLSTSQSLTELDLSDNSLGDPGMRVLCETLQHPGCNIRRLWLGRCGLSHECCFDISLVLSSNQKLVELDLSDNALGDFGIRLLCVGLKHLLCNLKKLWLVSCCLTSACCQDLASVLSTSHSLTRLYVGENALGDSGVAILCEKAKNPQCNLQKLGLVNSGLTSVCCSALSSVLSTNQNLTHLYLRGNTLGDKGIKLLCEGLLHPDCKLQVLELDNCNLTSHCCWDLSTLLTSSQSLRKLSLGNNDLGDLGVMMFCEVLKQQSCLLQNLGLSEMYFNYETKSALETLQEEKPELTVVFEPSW
In experiment [5] the test system is HUVEC. Kind of experiment: Cell cycle analysis by flow cytometry (PI), high glucose-induced G1 phase arrest. In kind it is cell-based, human. The conditions noted are these: 5 μM and 20 μM pretreatment 2 hours, 33 mM high glucose 48 hours, dose-dependent. How it is done: as §1, §4, §5
The subject of another experiment is HPAEC. The experiment is described as above. The conditions noted are these: 5 μM and 20 μM pretreatment 2 hours, 33 mM high glucose 48 hours, dose-dependent. Format: cell-based, human. The protocol: as §1, §4, §5
Experiment [6] concerns HUVEC. Kind of experiment: Monocyte-endothelial cell adhesion caused by TNF-α (Calcein AM-labeled THP-1). In kind it is cell-based, human. Conditions: 5 μM and 20 μM pretreatment 2 hours, TNF-α 20 ng/ml 8 hours, THP-1 monocytes. The protocol:
(§10) Specifically, two types of vascular endothelial cells, namely, HUVEC (human umbilical vein endothelial cells) and HCAEC (human coronary artery endothelial cells), were pretreated with Saikosaponin C at concentrations of 5 μM and 20 μM for 2 hours, and then treated with TNF-α (20 ng/ml) for 8 hours. Then, adhesion of monocyte-vascular endothelial cell and expression of cell adhesion molecules (ICAM-1, VCAM-1) of vascular endothelial cells were observed. […] The adhesion of monocyte-endothelial cells was evaluated by imaging analysis using a confocal microscope and fluorescence analysis using a microplate reader, and expression of adhesion proteins (ICAM-1 and VCAM-1) was evaluated by Western blotting.
(§11) Calcein AM fluorescence was analyzed using a confocal microscope and a microplate reader, and the expression of cell adhesion proteins (ICAM-1, VCAM-1) were evaluated through Western blotting.
(§12) FIGS. 9A and 9B show the results of analysis of monocyte-endothelial cell adhesion in two types of vascular endothelial cells (HUVEC, HCAEC) using a confocal microscope, and FIGS. 9C and 9D show the results of analysis of Calcein AM fluorescence (at an excitation wavelength of 488 nm, and at an emission wavelength of 517 nm) in the same experiment using a microplate reader. […]

Another experiment deals with HCAEC. The description is as above. Format: cell-based, human. Conditions: 5 μM and 20 μM pretreatment 2 hours, TNF-α 20 ng/ml 8 hours, THP-1 monocytes. The protocol: as §10, §11, §12

Consider `CC1O[C@@H](O[C@@H]2C(CO[C@@H]3OC(CO)[C@@H](O)C(O)C3O)O[C@@H](O[C@H]3CC[C@]4(C)[C@H]5C=C[C@]67OC[C@@]8(CCC(C)(C)C[C@H]86)[C@@H](O)C[C@@]7(C)[C@]5(C)CC[C@H]4C3(C)C)C(O)C2O)C(O)C(O)[C@H]1O` (stereo partly shown) [Saikosaponin C], for which the “high glucose-induced decrease in Sirt1 enzyme activity, protein expression, and phosphorylation” value in the experiment on Sirt1 in HUVEC and in the experiment on Sirt1 in HPAEC was “significantly alleviated” throughout. The “high glucose-induced increase in the expression of p21, p27, and p16 proteins” value in experiment [1] and in experiment [2] was “significantly abolished” each time. The “high glucose-induced decrease in NOS-NO signaling (NO level, eNOS enzymatic activity, protein expression, phosphorylation)” value in [3] and in experiment [4] was “significantly alleviated” each time. Moreover, the “PDGF-BB-increased proliferation and migration of vascular smooth muscle cells” value with AoSMC and in the experiment on CASMC was “not inhibited” throughout. Moreover, on NLRP3 inflammasome, the IL-1β secretion result was “inhibited”. In addition, the “high glucose-induced G1 phase arrest” value in the experiment with HUVEC [5] and in the experiment with HPAEC was “significantly abolished” each time. Moreover, the “monocyte-endothelial cell adhesion caused by TNF-α” value with HUVEC [6] and in the experiment on HCAEC was “inhibited” each time.
